Measurements taken from PubChem BioAssay AID2060489 (Molecular Pharmacology Branch, DTP, NCI, 2025).

Test system: 922993-354-T-J3-PDC complex spheroids, viability
Test: Anticancer human tumor 922993-354-T-J3-PDC patient-derived endometrial carcinoma cell line growth inhibition [GQUAD]
Settings: for IC50: curve of first compound; for viability, T/C: stronger effect = lower value
Summary of the method: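 Multi-cell-type spheroids of tumor cells with HUVEC and mesenchymal stem cells, treated with drug combinations. Concentrations descend in half-log steps from near clinical Cmax, or from 10 microM where Cmax is unknown; viability read-out.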

[1] = second compound 0.0316 µM, first compound 0.0316 µM
[2] = second compound 0.0316 µM, first compound 0.1 µM
[3] = second compound 0.0316 µM, first compound 0.316 µM
[4] = second compound 0.0316 µM, first compound 1 µM
[5] = second compound 0.0316 µM, first compound 3.16 µM
[6] = second compound 0.0316 µM, first compound 10 µM
[7] = second compound 0.1 µM, first compound 0.0316 µM
[8] = second compound 0.1 µM, first compound 0.1 µM
[9] = second compound 0.1 µM, first compound 0.316 µM
[10] = second compound 0.1 µM, first compound 1 µM
[11] = second compound 0.1 µM, first compound 3.16 µM
[12] = second compound 0.1 µM, first compound 10 µM
[13] = second compound 0.316 µM, first compound 0.0316 µM
[14] = second compound 0.316 µM, first compound 0.1 µM
[15] = second compound 0.316 µM, first compound 0.316 µM
[16] = second compound 0.316 µM, first compound 1 µM
[17] = second compound 0.316 µM, first compound 3.16 µM
[18] = second compound 0.316 µM, first compound 10 µM
[19] = second compound 1 µM, first compound 0.0316 µM
[20] = second compound 1 µM, first compound 0.1 µM
[21] = second compound 1 µM, first compound 0.316 µM
[22] = second compound 1 µM, first compound 1 µM
[23] = second compound 1 µM, first compound 3.16 µM
[24] = second compound 1 µM, first compound 10 µM
[25] = second compound 3.16 µM, first compound 0.0316 µM
[26] = second compound 3.16 µM, first compound 0.1 µM
[27] = second compound 3.16 µM, first compound 0.316 µM
[28] = second compound 3.16 µM, first compound 1 µM
[29] = second compound 3.16 µM, first compound 3.16 µM
[30] = second compound 3.16 µM, first compound 10 µM
[31] = second compound 10 µM, first compound 0.0316 µM
[32] = second compound 10 µM, first compound 0.1 µM
[33] = second compound 10 µM, first compound 0.316 µM
[34] = second compound 10 µM, first compound 1 µM
[35] = second compound 10 µM, first compound 3.16 µM
[36] = second compound 10 µM, first compound 10 µM
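Note: spheroids exposed to compounds for seven days.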
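Throughout, for viability, T/C: 100% = DMSO vehicle control viability.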

CC(C)n1c(=O)n(C)c2cnc3cc(F)c(-c4ccc(OCCCN5CCCCC5)nc4)cc3c21 + CN(C)c1ccc(Nc2c3ccc(NC(=O)CCN4CCCC4)cc3nc3cc(NC(=O)CCN4CCCC4)ccc23)cc1
IC50 (second compound 0.0316 µM): > 10000 nM
IC50 (second compound 0.1 µM): > 10000 nM
IC50 (second compound 0.316 µM): > 10000 nM
IC50 (second compound 1 µM): > 10000 nM
IC50 (second compound 3.16 µM): 7040 nM
IC50 (second compound 10 µM): 1820 nM
viability, T/C [1]: 118%
viability, T/C [2]: 84.9%
viability, T/C [3]: 99.3%
viability, T/C [4]: 59.6%
viability, T/C [5]: 91.7%
viability, T/C [6]: 71.4%
viability, T/C [7]: 114%
viability, T/C [8]: 89.5%
viability, T/C [9]: 101%
viability, T/C [10]: 73.3%
viability, T/C [11]: 81.7%
viability, T/C [12]: 59%
viability, T/C [13]: 99.3%
viability, T/C [14]: 91.7%
viability, T/C [15]: 97%
viability, T/C [16]: 70.2%
viability, T/C [17]: 84.7%
viability, T/C [18]: 70.9%
viability, T/C [19]: 81.2%
viability, T/C [20]: 97%
viability, T/C [21]: 92.2%
viability, T/C [22]: 82.1%
viability, T/C [23]: 77.1%
viability, T/C [24]: 65%
viability, T/C [25]: 96.8%
viability, T/C [26]: 103%
viability, T/C [27]: 98.5%
viability, T/C [28]: 76%
viability, T/C [29]: 67.6%
viability, T/C [30]: 43%
viability, T/C [31]: 114%
viability, T/C [32]: 73.7%
viability, T/C [33]: 114%
viability, T/C [34]: 67%
viability, T/C [35]: 36.1%
viability, T/C [36]: 32.3%

CC1COCCN1c1cc(-c2ccnn2C)c2ccnc(-c3ccn[nH]3)c2n1 (centres undefined) + CN(C)c1ccc(Nc2c3ccc(NC(=O)CCN4CCCC4)cc3nc3cc(NC(=O)CCN4CCCC4)ccc23)cc1
IC50 (second compound 0.0316 µM): 260 nM
IC50 (second compound 0.1 µM): 190 nM
IC50 (second compound 0.316 µM): 175 nM
IC50 (second compound 1 µM): 278 nM
IC50 (second compound 3.16 µM): 176 nM
IC50 (second compound 10 µM): 396 nM
viability, T/C [1]: 98.4%
viability, T/C [2]: 73.4%
viability, T/C [3]: 50.3%
viability, T/C [4]: 16.7%
viability, T/C [5]: 18%
viability, T/C [6]: 20%
viability, T/C [7]: 110%
viability, T/C [8]: 68.2%
viability, T/C [9]: 36.1%
viability, T/C [10]: 18.2%
viability, T/C [11]: 20.2%
viability, T/C [12]: 12.3%
viability, T/C [13]: 105%
viability, T/C [14]: 58.1%
viability, T/C [15]: 46.9%
viability, T/C [16]: 16.8%
viability, T/C [17]: 16.5%
viability, T/C [18]: 19.6%
viability, T/C [19]: 84.8%
viability, T/C [20]: 64.2%
viability, T/C [21]: 54.2%
viability, T/C [22]: 22.9%
viability, T/C [23]: 19.1%
viability, T/C [24]: 21.4%
viability, T/C [25]: 119%
viability, T/C [26]: 52.7%
viability, T/C [27]: 54.3%
viability, T/C [28]: 18.2%
viability, T/C [29]: 21.3%
viability, T/C [30]: 22.4%
viability, T/C [31]: 130%
viability, T/C [32]: 79.8%
viability, T/C [33]: 65.2%
viability, T/C [34]: 25.6%
viability, T/C [35]: 21.2%
viability, T/C [36]: 19.6%
